Results reported in ChEMBL document CHEMBL1137927, “Initial structure-activity relationships of lysophosphatidic acid receptor antagonists: discovery of a high-affinity LPA1/LPA3 receptor antagonist” (Bioorg Med Chem Lett, 2004).
pIC50, pKi: −log10 of the molar value.

Legend:
[1] = molecular target: Lysophosphatidic acid receptor 1 (Homo sapiens, UniProt Q92633); test: In vitro ability to antagonize LPA-evoked [35S]GTP-gamma-S binding to lysophosphatidic acid receptor 1 in HEK293T cell lines; type: functional, cell-based, HEK-293T
[2] = molecular target: T1, Lysophosphatidic acid receptor 3 (Homo sapiens, UniProt Q9UBY5); test: In vitro antagonism of LPA-evoked [35S]GTP-gamma-S binding to lysophosphatidic acid receptor 3 in HEK293T cell lines; type: functional, cell-based, HEK-293T
T1 sequence (Q9UBY5 whole entry): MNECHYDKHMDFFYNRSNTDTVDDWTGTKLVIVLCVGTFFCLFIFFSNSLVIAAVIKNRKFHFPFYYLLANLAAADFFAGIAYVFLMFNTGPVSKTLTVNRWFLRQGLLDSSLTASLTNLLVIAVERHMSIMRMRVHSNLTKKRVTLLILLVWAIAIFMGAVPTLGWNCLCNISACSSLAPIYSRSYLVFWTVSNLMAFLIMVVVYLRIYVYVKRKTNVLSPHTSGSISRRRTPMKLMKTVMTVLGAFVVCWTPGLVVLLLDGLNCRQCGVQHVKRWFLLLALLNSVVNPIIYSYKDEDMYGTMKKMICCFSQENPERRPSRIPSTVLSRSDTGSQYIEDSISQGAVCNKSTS

Lysophosphatidic acid receptor 1, sequence (Q92633 whole entry): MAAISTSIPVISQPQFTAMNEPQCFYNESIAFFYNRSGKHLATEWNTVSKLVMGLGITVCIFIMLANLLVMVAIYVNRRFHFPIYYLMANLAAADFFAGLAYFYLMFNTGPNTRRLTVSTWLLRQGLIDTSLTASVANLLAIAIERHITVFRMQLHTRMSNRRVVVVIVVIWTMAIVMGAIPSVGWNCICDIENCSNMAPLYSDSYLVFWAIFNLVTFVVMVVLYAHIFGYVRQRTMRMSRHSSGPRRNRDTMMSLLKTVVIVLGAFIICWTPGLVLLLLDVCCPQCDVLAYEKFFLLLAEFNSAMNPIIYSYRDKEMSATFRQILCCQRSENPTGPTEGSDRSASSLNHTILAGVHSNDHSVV

SMILES	pIC50 [1]	pKi [1]	pIC50 [2]
CCCCCCCC/C=C\CCCCCCCC(=O)NC(COP(=O)(O)O)Cc1ccc(OCc2ccccc2)cc1 (stereo not drawn)	5.28	6.86	5.19
CCCCCCCC/C=C\CCCCCCCC(=O)N[C@@H](COP(=O)(O)O)Cc1ccc(OC(=O)c2cc(OC)c(OC)c(OC)c2)cc1	< 5.00		6.37
CCCCCCCC/C=C\CCCCCCCC(=O)N[C@@H](COP(=O)(O)O)Cc1ccc(OC2Cc3ccccc3C2)cc1	5.53	6.87	5.64
CCCCCCCC/C=C\CCCCCCCC(=O)N[C@H](COP(=O)(O)O)Cc1ccc(OC(=O)c2ccc(CCCCC)cc2)cc1	< 5.00		< 5.00
CCCCCCCC/C=C\CCCCCCCC(=O)N[C@@H](COP(=O)(O)O)Cc1ccc(Oc2cc3ccccc3[nH]2)cc1	5.15	7.14	5.58
CCCCCCCC/C=C\CCCCCCCC(=O)N[C@H](COP(=O)(O)O)Cc1ccc(OCc2ccccn2)cc1	6.22	6.81	6.03
CCCCCCCCCCCCCCCC(=O)NC(COP(=O)(O)O)Cc1ccc(OCc2cccc(OC)c2)cc1 (stereo not drawn)	< 5.00		5.14
CCCCCCCC/C=C\CCCCCCCC(=O)N[C@@H](COP(=O)(O)O)Cc1ccc(OCc2ccccc2)cc1	5.60		< 5.00
CCCCCCCC/C=C\CCCCCCCC(=O)N[C@H](COP(=O)(O)O)Cc1ccc(OCc2ccccc2)cc1	< 5.00		< 5.00
C#CCOc1ccc(C[C@@H](COP(=O)(O)O)NC(=O)CCCCCCC/C=C\CCCCCCCC)cc1	< 5.00		< 5.00
CCCCCCCC/C=C\CCCCCCCC(=O)N[C@@H](COP(=O)(O)O)Cc1ccc(OCC2CCCCC2)cc1	< 5.00		5.39
CCCCCCCC/C=C\CCCCCCCC(=O)N[C@@H](COP(=O)(O)O)Cc1ccc(OCCC(C)C)cc1	< 5.00		6.45
CCCCCCCC/C=C\CCCCCCCC(=O)N[C@H](COP(=O)(O)O)Cc1ccc(OCC)cc1	< 5.00		5.16
C=CCOc1ccc(C[C@@H](COP(=O)(O)O)NC(=O)CCCCCCC/C=C\CCCCCCCC)cc1	< 5.00		< 5.00
CCCCCCCCCCCCCC(=O)NC(COP(=O)(O)O)Cc1ccc(OCc2ccccc2)cc1 (stereo not drawn)	5.04		< 5.00
CCCCCCCC/C=C\CCCCCCCC(=O)N[C@@H](COP(=O)(O)O)Cc1ccc(OCc2ccccn2)cc1	6.96	7.74	6.76
CCCCCCCCCCCCCCCC(=O)NC(COP(=O)(O)O)Cc1ccc(OCc2ccccc2)cc1 (stereo not drawn)	< 5.00		5.16
CCCCCCCC/C=C\CCCCCCCC(=O)N[C@H](COP(=O)(O)O)Cc1ccc(OCc2cccc(OC)c2)cc1	5.25	6.19	6.19
CCCCCCCC/C=C\CCCCCCCC(=O)N[C@@H](COP(=O)(O)O)Cc1ccc(OCc2cccc(OC)c2)cc1	5.97	7.47	7.45
CCCCC/C=C\C/C=C\CCCCCCCC(=O)NC(COP(=O)(O)O)Cc1ccc(OCc2ccccc2)cc1 (stereo not drawn)	5.37		< 5.00
CCCCCCCC(=O)NC(COP(=O)(O)O)Cc1ccc(OCc2ccccc2)cc1 (stereo not drawn)	5.10		< 5.00
CCCCCCCC/C=C\CCCCCCCC(=O)N[C@H](COP(=O)(O)O)Cc1ccc(Oc2cc3ccccc3[nH]2)cc1	< 5.00		5.03
CCCCCCCC/C=C\CCCCCCCC(=O)N[C@H](COP(=O)(O)O)Cc1ccc(OCCC(C)C)cc1	< 5.00		5.23
CCCCCCCCCCCCCCCCCC(=O)N[C@@H](COP(=O)(O)O)Cc1ccc(OC2O[C@H](CO)[C@@H](O)[C@H](O)[C@H]2O)cc1 (stereo partly drawn)	< 5.00		< 5.00
CCCCCCCC/C=C\CCCCCCCC(=O)N[C@@H](COP(=O)(O)O)Cc1ccc(OC)cc1	< 5.00		< 5.00
C#CCCCCOc1ccc(C[C@H](COP(=O)(O)O)NC(=O)CCCCCCC/C=C\CCCCCCCC)cc1	< 5.00		5.48
CCCCCCCC/C=C\CCCCCCCC(=O)N[C@@H](COP(=O)(O)O)Cc1ccc(OCC)cc1	< 5.00		5.19
CCCCCCCC/C=C\CCCCCCCC(=O)N[C@H](COP(=O)(O)O)Cc1ccc(OC(=O)c2ccc(N)cc2)cc1	< 5.00		< 5.00
